In US20070082934A1, “Substituted 4-aryloxy and 4-arylsulfanyl-phenyl-2-aminothiazoles as inhibitors of cell proliferation” (priority 2003, published 2007):
Entries after “also recorded” stand apart in the source; their conditions may differ. Where two headings read alike, the source gives them in different places.

How the values were obtained:
[1] = system: MCF7 cells; assay: Inhibition of breast cell proliferation, SRB assay, 48 hour incubation; type: cell-based, human; settings: for inhibition at 100 µM: Homo sapiens
Method: MCF7 cells were treated with compounds or vehicle (DMSO). […] Percent inhibition of growth at 100 μM was determined and GI50 values were calculated from log-dose response curves as previously described ([…] et al., Cancer Res., 2003, 63:3211-3220).

[2] = system: BT-549; assay: NCI anti-tumor screen, SRB assay, 48 hour exposure; type: cell-based, human; settings: BT-549 breast cancer cell line
Method: (§1) Compounds were tested at the National Cancer Institute's Developmental Therapeutics Program, in duplicate, against 60 human tumor cell lines at a minimum of five concentrations at 10-fold dilutions: A 48 hour continuous drug exposure protocol was used, and a sulforhodamine B (SRB) protein assay was used to estimate cell viability or growth.
(§2) Upon completion of the synthesis, the thiazole compounds 17-24 and 27-30 were submitted to the NCI's antitumor screen (see Monks et al., J. Natl. Cancer Inst., 1991, 83:757b 766; Bray and Wickstrom, Biotechniques, 1996, 21:5:780-782) and the results against human breast cancer cell lines are shown in Table 2 as GI50 values.

[3] = system: MCF7; assay: NCI anti-tumor screen, SRB assay, 48 hour exposure; type: cell-based, human; settings: MCF7 breast cancer cell line
Method: as §1, §2

[4] = system: MDA-MB-231/ATCC; assay: NCI anti-tumor screen, SRB assay, 48 hour exposure; type: cell-based, human; settings: MDA-MB-231/ATCC breast cancer cell line
Method: as §1, §2

[5] = system: NCI/ADR-RES; assay: NCI anti-tumor screen, SRB assay, 48 hour exposure; type: cell-based, human; settings: adriamycin-resistant cell line
Method: as §1, §2

[6] = system: T-47D; assay: NCI anti-tumor screen, SRB assay, 48 hour exposure; type: cell-based, human; settings: estrogen-positive cell line T-47D
Method: as §1, §2

[7] = system: HS 578T; assay: NCI anti-tumor screen, SRB assay, 48 hour exposure; type: cell-based, human; settings: estrogen-negative HS 578T cell line
Method: as §1, §2

[8] = system: MDA-MB-435; assay: NCI anti-tumor screen, SRB assay, 48 hour exposure; type: cell-based, human; settings: estrogen-negative cell line MDA-MB-435
Method: as §1, §2

[9] = system: human breast cancer cell lines; assay: NCI anti-tumor screen, breast cancer cell line panel as a whole; type: cell-based; settings: for selectivity among breast cancer cell lines: comparison of GI50 values across cell lines; for growth inhibition of human breast tumor cells, in words: estrogen-positive and negative breast cancer cell lines
Method: as §1, §2

[10] = system: 60 human tumor cell lines; assay: NCI anti-tumor screen, all NCI cell lines; type: cell-based; settings: NCI cell lines other than breast (FIG. 3)
Method: FIG. 3 is a graphic representation of a GI50 comparison for compound 17 (4-[4′-(4-Chlorophenoxy)-phenyl]-thiazol-2-yl ammonium iodide) for all NCI cell lines. The ordinate represents growth inhibitor activity and the abscissa indicates the type of tumor as well as each cell line treated with compound 17. L=leukemia; NSCLC Non-small cell lung cancer; C=Colon; CNS=central nervous system; M=Melanoma; O=Ovarian; R=Renal; P=Prostate; B=Breast.
as §1

melting point | Structure (SMILES) | inhibition at 100 µM [1] | GI50 ([2]; Homo sapiens) | GI50 ([3]; Homo sapiens) | GI50 ([4]; Homo sapiens) | GI50 ([5]; Homo sapiens, NCI/ADR-RES) | GI50 ([6]; Homo sapiens, T47D) | GI50 ([7]; Homo sapiens) | GI50 ([8]; Homo sapiens) | selectivity among breast cancer cell lines [9] | % Inhibition of MCF7 cells at 100 μM [1] | other results
 | Nc1nc(-c2ccc(Oc3ccccc3)cc2)cs1 [Compound 16, 4-(4′-Phenoxyphenyl)-thiazol-2-yl ammonium iodide] | 81% |  |  |  |  |  |  |  |  |  | 
 | I.Nc1nc(-c2ccc(Oc3ccc(Cl)cc3)cc2)cs1 [Compound 17, 4-[4′-(4-Chlorophenoxy)-phenyl]-thiazol-2-yl ammonium iodide] | 85% | > 100 µM | > 100 µM | > 100 µM | > 100 µM | 0.917 µM | > 100 µM | > 100 µM |  |  | GI50 ([9]; Homo sapiens, T47D, all breast cancer cell lines except T-47D, read-out: GI50 in all cell lines except T-47D): > 100 µM; activity against other types of cancer [10]: not effective against other types of cancer
 | I.Nc1nc(-c2ccc(Oc3cccc(Cl)c3)cc2)cs1 [Compound 18, 4-[4-(3′-Chlorophenoxy)-phenyl]-thiazol-2-yl ammonium iodide] |  |  |  |  |  |  |  |  | active only against estrogen receptor-negative breast cancer | 100% | GI50 [2]: 14.3 µM; GI50 [3]: 14.6 µM; GI50 [4]: 4.8 µM; GI50 [5]: 13.2 µM; GI50 [6]: 14 µM; GI50 [7]: 19.7 µM; GI50 [8]: 2.1 µM
 | I.Nc1nc(-c2ccc(Oc3ccccc3Cl)cc2)cs1 [Compound 19, 4-[4-(2′-Chlorophenoxy)-phenyl]-thiazol-2-yl ammonium iodide] |  |  |  |  |  |  |  |  |  | 87% | GI50 [2]: 12.8 µM; GI50 [3]: 27.4 µM; GI50 [4]: 10.5 µM; GI50 [5]: 25.8 µM; GI50 [6]: 16.4 µM; GI50 [8]: 14.8 µM
202 to 205 °C | I.Nc1nc(-c2ccc(Oc3ccc(Cl)c(Cl)c3)cc2)cs1 [Compound 20, 4-[4′-(3,4-Dichlorophenoxy)-phenyl]-thiazol-2-yl ammonium iodide] | 47% | 1.91 µM | 3.02 µM | 2.29 µM | 1.29 µM | 20.9 µM | 2 µM | 0.759 µM | selectivity for the adriamycin-resistant cell line |  | growth inhibition of human breast tumor cells, in words [9]: low micromolar growth inhibition of most human breast tumor cells; also recorded: low micromolar
204 to 207 °C | COc1ccc(Oc2ccc(-c3csc(N)n3)cc2)cc1.I [Compound 21, 4-[4′-(4-Methoxyphenoxy)-phenyl]-thiazol-2-yl ammonium iodide] | 24% |  |  |  |  |  |  |  |  |  | 
118 to 120 °C | Cc1ccc(Oc2ccc(-c3csc(N)n3)cc2)cc1.I [Compound 22, 4-[4′-(p-Toluoxy)phenyl]-thiazol-2-yl ammonium iodide] | 98% |  | 17.2 µM | 14.1 µM | 18.2 µM | 0.54 µM | 22.7 µM | 11.8 µM |  |  | 
253 to 254 °C | I.Nc1nc(-c2ccc(Oc3ccc(-c4ccccc4)cc3)cc2)cs1 [Compound 23, 4-[4′-(Biphenyl-4-yloxy)-phenyl]-thiazol-2-yl ammonium iodide] | 53% | 10.4 µM | 14.3 µM | 12.6 µM | 17.4 µM | 3.91 µM | 18.8 µM | 18.6 µM |  |  | 
137 to 140 °C | I.Nc1nc(-c2ccc(Oc3ccc(Oc4ccccc4)cc3)cc2)cs1 [Compound 24, 4-[4′-(4-Phenoxy-phenoxy)-phenyl]-thiazol-2-yl ammonium iodide] | 81% | 16.1 µM | 35.1 µM | 12.6 µM | 35.9 µM | 4.9 µM | 27.8 µM | 22.7 µM |  |  | 
 | CCOC(=O)c1cccc(Oc2ccc(-c3csc(N)n3)cc2)c1.I [Compound 25, 4-[4-(3′-Ethoxycarbonyl-phenoxy)-phenyl]-thiazol-2-yl ammonium iodide] |  |  |  |  |  |  |  |  |  | 84% | 
129 to 132 °C | I.Nc1nc(-c2ccc(Sc3ccccc3)cc2)cs1 [Compound 26, 4-(4′-Phenylsulfanyl-phenyl)-thiazol-2-yl ammonium iodide] | 79% |  |  |  |  |  |  |  |  |  | 
 | I.Nc1nc(-c2ccc(Sc3ccc(Cl)cc3)cc2)cs1 [Compound 27, 4-[4-(4′-Chloro-phenylsulfanyl)-phenyl]-thiazol-2-yl ammonium iodide] |  |  |  |  |  |  |  |  | active only against estrogen receptor-negative breast cancer | 89% | GI50 [2]: 15.3 µM; GI50 [3]: 21.6 µM; GI50 [4]: 12.4 µM; GI50 [5]: 17.5 µM; GI50 [6]: 24.4 µM; GI50 [7]: 18.8 µM; GI50 [8]: 1.49 µM
 | I.Nc1nc(-c2ccc(Sc3ccc(Cl)c(Cl)c3)cc2)cs1 [Compound 28, 4-[4-(3′,4′-Dichloro-phenylsulfanyl)-phenyl]-thiazol-2-yl ammonium iodide] |  |  |  |  |  |  |  |  | selectivity for the adriamycin-resistant cell line | 54% | GI50 [2]: 5.95 µM; GI50 [3]: 5.68 µM; GI50 [4]: 3.73 µM; GI50 [5]: 3.37 µM; GI50 [6]: 2.79 µM; GI50 [8]: 1.11 µM; GI50 ([9]; all breast cancer cell lines except HS 578T, read-out: GI50 values in all cell lines except HS 578T): 1 to 5 µM; growth inhibition of human breast tumor cells, in words [9]: low micromolar growth inhibition of most human breast tumor cells
 | COc1ccc(Sc2ccc(-c3csc(N)n3)cc2)cc1.I [Compound 29, 4-[4-(4′-Methoxy-phenylsulfanyl)-phenyl]-thiazol-2-yl ammonium iodide] |  |  |  |  |  |  |  |  |  | 11% | 
182 to 185 °C | Cc1ccc(Sc2ccc(-c3csc(N)n3)cc2)cc1.I [Compound 30, 4-(4′p-Tolylsulfanyl-phenyl)-thiazol-2-yl ammonium iodide] | 96% | 25.7 µM | 25.9 µM | > 100 µM | 64.6 µM | 68 µM | 59.6 µM | 1.4 µM | active only against estrogen receptor-negative breast cancer |  | 
